The results in this text go back to PubChem BioAssay (NCI).

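Interpolation was linear, between the two tested concentrations surrounding the appropriate level; five concentrations were tested over 48 hours in 96-well plates. TGI: total growth inhibition.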 Some results are limits rather than exact numbers.

Test systems include SK-MEL-2 melanoma; MDA-N; A498 renal; UACC-257 melanoma; SK-MEL-5 melanoma; BT-549 breast; MDA-MB-435; CAKI-1 renal; MALME-3M melanoma; DU-145 prostate.
Assay in all cases: inhibition of tumour cell growth, NCI panel, 48 h

Turning to `NC(=O)c1ccc(S(=O)(=NS(=O)(=O)c2ccccc2)c2ccc(C(N)=O)cc2)cc1`, the TGI with SK-MEL-2 melanoma, with MDA-N, with A498 renal, in the experiment on UACC-257 melanoma, in the experiment with SK-MEL-5 melanoma and in the experiment with BT-549 breast was above 100 µM in each case. Further, the TGI in the experiment on MDA-MB-435, in the experiment on CAKI-1 renal, in the experiment with MALME-3M melanoma and in the experiment on DU-145 prostate was above 100 µM each time.

Regarding `O=C1CCc2c(sc3ncnc(Nc4cccc(Br)c4)c23)C1`, the TGI with SK-MEL-2 melanoma was found to be 23.8 µM; in the experiment on MDA-N, 7.69 µM; in the experiment on A498 renal, 31.4 µM; with UACC-257 melanoma it was 11.6 µM; with SK-MEL-5 melanoma, 3.67 µM; with BT-549 breast, 13.9 µM. In addition, the TGI is 3.82 µM with MDA-MB-435, 12.5 µM in the experiment with CAKI-1 renal, 4.85 µM in the experiment with MALME-3M melanoma and 17.3 µM with DU-145 prostate.
